Where a name gives a salt, the structure may show the parent alone.
Legend:
[1] = system: patients with relapsing-remitting MS (RRMS); settings: compared with placebo after two years of treatment; cited from earlier work
Nrf2 [2] = assay: Nrf2 activation in DLD-1 ARE-luciferase reporter cell line; type: cell-based, Human
Procedure: (§1) Human cancer cell line DLD-1 and breast cancer cell line MCF7 reporter stable cell lines were generated by transfection with a firefly luciferase reporter construct harboring the luciferase cDNA cloned downstream of eight catenated copies of the antioxidant response element ([…] ID NO.:1). See Wang et al. Cancer Res. 2006; 66:10983-94. To measure Nrf2 activation in the ARE-luciferase reporter cell lines, the cells were plated in 96-well plates at 20-50 k cells/well 24 hours prior to stimulation with the test compounds. […] The reporter cells were harvested 24 hours-48 hours after addition of the compounds and lysed for detection of luciferase activity. Luciferase activity in the lysates was monitored using the Bright-Glo Luciferase Assay System of Promega and Tecan Genios Pro plate reader. Luciferase induction in the compound-treated cells was calculated as fold change over the baseline activity detected in control cultures treated with DMSO-containing media.

Nrf2 [3] = assay: Nrf2 activation in MCF-7 ARE-luciferase reporter cell line; type: cell-based, Human
Procedure: as §1

[4] = DLD-1/ARE-E2, 24 hr Stimulation
[5] = DLD-1/ARE-E2, 48 hr Stimulation
[6] = MCF-7/ARE-D3, 24 hr Stimulation
[7] = MCF-7/ARE-D3, 48 hr Stimulation

| SMILES | clinical relapses, accumulation of disability progression, and lesion number and volume [1] | Maximum Nrf2 Activation Fold Change (Nrf2 [2]; [4]) | concentration at maximum fold change (@ [uM]) (Nrf2 [2]; [4]) | Maximum Nrf2 Activation Fold Change (Nrf2 [2]; [5]) | concentration at maximum fold change (@ [uM]) (Nrf2 [2]; [5]) | Maximum Nrf2 Activation Fold Change (Nrf2 [3]; [6]) | concentration at maximum fold change (@ [uM]) (Nrf2 [3]; [6]) | Maximum Nrf2 Activation Fold Change (Nrf2 [3]; [7]) | concentration at maximum fold change (@ [uM]) (Nrf2 [3]; [7]) |
| --- | --- | --- | --- | --- | --- | --- | --- | --- | --- |
| COC(=O)/C=C/C(=O)OC [DMF, dimethyl fumarate] | significantly reduced | – | – | – | – | – | – | – | – |
| COC(=O)/C=C/C(=O)O [MMF, monomethyl fumarate] | – | 5 fold | 1000 µM | 12 fold | 1000 µM | 75 fold | 1000 µM | 94 fold | 750 µM |
| O=C(O)/C=C/C(=O)O.[2H]C([2H])([2H])OC(=O)/C=C/C(=O)O [Example 2, (^2H3)methyl fumaric acid ester] | – | 6 fold | 1000 µM | 14 fold | 1000 µM | 55 fold | 1000 µM | 81 fold | 1000 µM |

Reference: US20140179779A1, “Deuterium Substituted Fumarate Derivatives” (Biogen IDEC MA Inc., priority 2012, published 2014)
